Measured values taken from patent publication US20190071416A1, “COMPOUNDS FOR TREATMENT OF CANCER AND EPIGENETICS” (Agency For Science, Technology and Research, priority 2015, published 2019).

Target: T1, SMYD3 (Homo sapiens, UniProt Q9H7B4)
T1 sequence (Q9H7B4 1-428): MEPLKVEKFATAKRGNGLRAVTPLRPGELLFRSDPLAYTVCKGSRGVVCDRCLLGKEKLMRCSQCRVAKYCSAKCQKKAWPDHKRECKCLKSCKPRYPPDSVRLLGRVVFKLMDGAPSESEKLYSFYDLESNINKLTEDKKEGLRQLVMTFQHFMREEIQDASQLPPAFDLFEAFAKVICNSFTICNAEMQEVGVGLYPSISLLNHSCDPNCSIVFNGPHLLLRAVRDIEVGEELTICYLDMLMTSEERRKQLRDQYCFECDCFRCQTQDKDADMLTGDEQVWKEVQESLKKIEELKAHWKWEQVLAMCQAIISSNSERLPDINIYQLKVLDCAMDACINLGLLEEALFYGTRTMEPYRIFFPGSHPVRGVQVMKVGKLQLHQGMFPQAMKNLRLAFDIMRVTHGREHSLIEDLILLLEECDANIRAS
Assay: SMYD3 biochemical assay (MTase-Glo, MAP3K2 peptide substrate)
Conditions: Table 3; MTase assay, MAP3K2 peptide substrate; read-out: IC50
How it was run: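 Methylation of MAP3K2 peptide (10 µM final) with SAM (1.0 µM final) by SMYD3, 30 min at room temperature. SAH formed was enzymatically converted to ATP and detected as luminescence with MTase-Glo reagents; IC50 by non-linear regression.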

Compound | IC50
CCCOC(=O)N1CCN(C(=O)c2ccc3c(Cl)cc(-c4cnc5[nH]nc(C)c5c4)nc3c2)C[C@H]1C [B199, Propyl (R)-4-(4-chloro-2-(3-methyl-1H-pyrazolo[3,4-b]pyridin-5-yl)quinoline-7-carbonyl)-2-methylpiperazine-1-carboxylate] | 350 nM
CCCOC(=O)N1CCN(C(=O)c2ccc3c(Cl)cc(-c4cnc5[nH]nc(C)c5c4)nc3c2)[C@@H](C)C1 [B200, Propyl (S)-4-(4-chloro-2-(3-methyl-1H-pyrazolo[3,4-b]pyridin-5-yl)quinoline-7-carbonyl)-3-methylpiperazine-1-carboxylate] | 1030 nM
CCCOC(=O)N1CCN(C(=O)c2ccc3c(Cl)cc(-c4ccc5occc5c4)nc3c2)CC1 [B203, Propyl 4-(2-(benzofuran-5-yl)-4-chloroquinoline-7-carbonyl)piperazine-1-carboxylate] | 460 nM
CCCOC(=O)N1CCN(C(=O)c2ccc3c(Cl)cc(-c4ccc(C(=O)NC)c(F)c4)nc3c2)CC1 [B204, Propyl 4-(4-chloro-2-(3-fluoro-4-(methylcarbamoyl)phenyl)quinoline-7-carbonyl)piperazine-1-carboxylate] | 1010 nM
CCCOC(=O)N1CCN(C(=O)c2ccc3c(Cl)cc(-c4ccc(C(=O)NC5CC5)c(F)c4)nc3c2)CC1 [B205, Propyl 4-(4-chloro-2-(4-(cyclopropylcarbamoyl)-3-fluorophenyl)quinoline-7-carbonyl)piperazine-1-carboxylate] | 890 nM
CCCOC(=O)N1CCN(C(=O)c2ccc3c(Cl)cc(-c4ccc(C(=O)NCC)cc4)nc3c2)CC1 [B206, Propyl 4-(4-chloro-2-(4-(ethylcarbamoyl)phenyl)quinoline-7-carbonyl)piperazine-1-carboxylate] | 600 nM
CCCOC(=O)N1CCN(C(=O)c2ccc3c(Cl)cc(-c4ccc5nc(C)sc5c4)nc3c2)CC1 [B208, Propyl 4-(4-chloro-2-(2-methylbenzo[d]thiazol-6-yl)quinoline-7-carbonyl)piperazine-1-carboxylate] | 380 nM
CCCOC(=O)N1CCN(C(=O)c2ccc3c(Cl)cc(-c4ccc5[nH]cc(C)c5c4)nc3c2)CC1 [B211, Propyl 4-(4-chloro-2-(3-methyl-1H-indol-5-yl)quinoline-7-carbonyl)piperazine-1-carboxylate] | 1010 nM
CCCOC(=O)N1CCN(C(=O)c2ccc3c(Cl)cc(-c4ccc5nc(C)oc5c4)nc3c2)CC1 [B212, Propyl 4-(4-chloro-2-(2-methylbenzo[d]oxazol-6-yl)quinoline-7-carbonyl)piperazine-1-carboxylate] | 240 nM
CCCOC(=O)N1CCN(C(=O)c2ccc3c(Cl)cc(-c4ccc5ocnc5c4)nc3c2)CC1 [B213, Propyl 4-(2-(benzo[d]oxazol-5-yl)-4-chloroquinoline-7-carbonyl)piperazine-1-carboxylate] | 330 nM
CCCOC(=O)N1CCN(C(=O)c2ccc3c(Cl)cc(-c4cnn(C)c4)nc3c2)[C@@H](C)C1 [B219, Propyl (S)-4-(4-chloro-2-(1-methyl-1H-pyrazol-4-yl)quinoline-7-carbonyl)-3-methylpiperazine-1-carboxylate] | 230 nM
CCCOC(=O)N1CCN(C(=O)c2ccc3c(Cl)cc(-c4cc(F)c(O)c(F)c4)nc3c2)[C@@H](C)C1 [B220, Propyl (S)-4-(4-chloro-2-(3,5-difluoro-4-hydroxyphenyl)quinoline-7-carbonyl)-3-methylpiperazine-1-carboxylate] | 350 nM
CCCOC(=O)N1CCN(C(=O)c2ccc3c(Cl)cc(-c4ccnc5[nH]ccc45)nc3c2)CC1 [B221, Propyl 4-(4-chloro-2-(1H-pyrrolo[2,3-b]pyridin-4-yl)quinoline-7-carbonyl)piperazine-1-carboxylate] | 800 nM
CCCOC(=O)N1CCN(C(=O)c2ccc3c(Cl)cc(-c4ccc(COCCOC)cc4)nc3c2)CC1 [B224, Propyl 4-(4-chloro-2-(4-((2-methoxyethoxy)methyl)phenyl)quinoline-7-carbonyl)piperazine-1-carboxylate] | 800 nM
CCCOC(=O)N1CCN(C(=O)c2ccc3c(Cl)cc(-c4ccc(O)c(C)c4)nc3c2)[C@@H](C)C1 [B225, Propyl (S)-4-(4-chloro-2-(4-hydroxy-3-methylphenyl)quinoline-7-carbonyl)-3-methylpiperazine-1-carboxylate] | 230 nM
CCCCC(=O)N1CCN(C(=O)c2ccc3c(Cl)ccnc3c2)CC1 [B226, 1-(4-(4-chloroquinoline-7-carbonyl)piperazin-1-yl)pentan-1-one] | 7900 nM
CCCOC(=O)N1CCN(C(=O)c2ccc3c(Cl)cc(-c4cc(C)n(C)c4CN)nc3c2)CC1 [B227, Propyl 4-(2-(2-(aminomethyl)-1,5-dimethyl-1H-pyrrol-3-yl)-4-chloroquinoline-7-carbonyl)piperazine-1-carboxylate] | 770 nM
CCCOC(=O)N1CCN(C(=O)c2ccc3c(Cl)cc(-c4ccn(C(=O)OC)c4)nc3c2)CC1 [B228, Propyl 4-(4-chloro-2-(1-(methoxycarbonyl)-1H-pyrrol-3-yl)quinoline-7-carbonyl)piperazine-1-carboxylate] | 300 nM
CCCOC(=O)N1CCN(C(=O)c2ccc3c(Cl)cc(-c4cnn(C(C)C)c4)nc3c2)CC1 [B229, Propyl 4-(4-chloro-2-(1-isopropyl-1H-pyrazol-4-yl)quinoline-7-carbonyl)piperazine-1-carboxylate] | 1100 nM
CCCOC(=O)N1CCN(C(=O)c2ccc3c(Cl)cc(-c4cnn(C(F)F)c4)nc3c2)CC1 [B230, Propyl 4-(4-chloro-2-(1-(difluoromethyl)-1H-pyrazol-4-yl)quinoline-7-carbonyl)piperazine-1-carboxylate] | 700 nM

Continued, values first:

IC50 | Compound
100 nM | CCCOC(=O)N1CCN(C(=O)c2ccc3c(Cl)cc(-c4ccc5[nH]nc(C)c5c4)nc3c2)C[C@H]1C [B197, Propyl (R)-4-(4-chloro-2-(3-methyl-1H-indazol-5-yl)quinoline-7-carbonyl)-2-methylpiperazine-1-carboxylate]
200 nM | CCCOC(=O)N1CCN(C(=O)c2ccc3c(Cl)cc(-c4ccc5[nH]nc(C)c5c4)nc3c2)[C@@H](C)C1 [B198, Propyl (S)-4-(4-chloro-2-(3-methyl-1H-indazol-5-yl)quinoline-7-carbonyl)-3-methylpiperazine-1-carboxylate]
180 nM | CCCOC(=O)N1CCN(C(=O)c2ccc3c(Cl)cc(-c4cc(F)c(O)c(F)c4)nc3c2)CC1 [B201, Propyl 4-(4-chloro-2-(3,5-difluoro-4-hydroxyphenyl)quinoline-7-carbonyl)piperazine-1-carboxylate]
120 nM | CCCOC(=O)N1CCN(C(=O)c2ccc3c(Cl)cc(-c4ccc(O)c(C)c4)nc3c2)CC1 [B202, Propyl 4-(4-chloro-2-(4-hydroxy-3-methylphenyl)quinoline-7-carbonyl)piperazine-1-carboxylate]
60 nM | CCCOC(=O)N1CCN(C(=O)c2ccc3c(Cl)cc(-c4ccc5ncn(C)c5c4)nc3c2)CC1 [B207, Propyl 4-(4-chloro-2-(1-methyl-1H-benzo[d]imidazol-6-yl)quinoline-7-carbonyl)piperazine-1-carboxylate]
190 nM | CCCOC(=O)N1CCN(C(=O)c2ccc3c(Cl)cc(-c4cc[nH]c4)nc3c2)CC1 [B209, Propyl 4-(4-chloro-2-(1H-pyrrol-3-yl)quinoline-7-carbonyl)piperazine-1-carboxylate]
26 nM | CCCOC(=O)N1CCN(C(=O)c2ccc3c(Cl)cc(-c4ccc(C(=O)NC5CC5)cc4)nc3c2)CC1 [B210, Propyl 4-(4-chloro-2-(4-(cyclopropylcarbamoyl)phenyl)quinoline-7-carbonyl)piperazine-1-carboxylate]
120 nM | CCCOC(=O)N1CCN(C(=O)c2ccc3c(Cl)cc(-c4cc(C)n(C)c4C)nc3c2)CC1 [B214, Propyl 4-(4-chloro-2-(1,2,5-trimethyl-1H-pyrrol-3-yl)quinoline-7-carbonyl)piperazine-1-carboxylate]
110 nM | CCCOC(=O)N1CCN(C(=O)c2ccc3c(Cl)cc(-c4cnn(C)c4)nc3c2)C[C@H]1C [B215, Propyl (R)-4-(4-chloro-2-(1-methyl-1H-pyrazol-4-yl)quinoline-7-carbonyl)-2-methylpiperazine-1-carboxylate]
230 nM | CCCOC(=O)N1CCN(C(=O)c2ccc3c(Cl)cc(-c4ccc(C(=O)NC)c(F)c4)nc3c2)C[C@H]1C [B216, Propyl (R)-4-(4-chloro-2-(3-fluoro-4-(methylcarbamoyl)phenyl)quinoline-7-carbonyl)-2-methylpiperazine-1-carboxylate]
130 nM | CCCOC(=O)N1CCN(C(=O)c2ccc3c(Cl)cc(-c4cc(F)c(O)c(F)c4)nc3c2)C[C@H]1C [B217, Propyl (R)-4-(4-chloro-2-(3,5-difluoro-4-hydroxyphenyl)quinoline-7-carbonyl)-2-methylpiperazine-1-carboxylate]
220 nM | CCCOC(=O)N1CCN(C(=O)c2ccc3c(Cl)cc(-c4ccc(O)c(C)c4)nc3c2)C[C@H]1C [B218, Propyl (R)-4-(4-chloro-2-(4-hydroxy-3-methylphenyl)quinoline-7-carbonyl)-2-methylpiperazine-1-carboxylate]
46 nM | CCCOC(=O)N1CCN(C(=O)c2ccc3c(Cl)cc(-c4ccc5[nH]c(C)nc5c4)nc3c2)CC1 [B222, Propyl 4-(4-chloro-2-(2-methyl-1H-benzo[d]imidazol-5-yl)quinoline-7-carbonyl)piperazine-1-carboxylate]
